# Marks after values point to notes of the source that are not given here.
# Tested on: globally ischemic rat hearts
# Assay: Global ischemia (25 min) and reperfusion (30 min) in isolated perfused rat hearts, 5HT2 antagonists
# Description: To determine the effect of serotonin receptor agonists and antagonists, male Sprague-Dawley rats (450-550 g) were prepared as described below. The rats were anesthetized using 100 mg/kg sodium pentobarbital (i.p.). They were intubated and then treated with i.v. heparin (1000 U/kg). While being mechanically ventilated, their hearts were perfused in situ via retrograde cannulation of the aorta. The hearts were then excised and […] moved to a Langendorff apparatus where they were perfused with Krebs-henseleit bicarbonate buffer solution ((mM): 112 NaCI, 25 NaHC03, 5 KCI, 1.2 MgS04, 1 KH2P04, 1.25 CaC12, 2 pyruvate and 11.5 dextrose bubbled with 95% 02 - 5% C02) at a constant perfusion pressure (85 mm Hg). A water-filled latex balloon attached to a metal cannula was then inserted into the left ventricle and connected to a Statham pressure transducer for measurement of left ventricular pressure. The hearts were allowed to equilibrate for 15 min, at which time end diastolic pressure (EDP) was adjusted to 5 mm Hg and this balloon volume was maintained for the duration of the experiment. Pre-ischemia or pre-drug function, heart rate and coronary flow (extracorporeal electromagnetic flow probe) were then measured. Left ventricular developed pressure (LVDP) was calculated from the difference between left ventricular peak systolic pressure and EDP. Cardiac temperature was maintained throughout the experiment by submerging the hearts in 37 ° C buffer which was allowed to accumulate in a stoppered, heated chamber.
# The model of global ischemia in isolated rat hearts was designed such that any protective effects observed are generally due to a direct cardioprotective effect and not to effects on cornonary or peripheral vascular tone. Also, because the hearts are perfused with an oxygenated buffer solution, platelets or the normal components of an inflammatory response are probably not important mediators of the ischemic/reperfusion injury observed in this model. […] Agents which exert their protective effects either through their effects on the peripheral or coronary vasculature such as nitrates or agents which act on blood or act on some component of the inflammatory response such as thromboxane A2 receptor antagonists are generally ineffective in this model.
# The hearts were divided into the following groups: 1. Vehicle (0.1% DMSO) treatment beginning 10 minutes before the onset of ischemia (n = 8). 2. 0.3-10 µM ketanserin treatment beginning 10 minutes before the onset of ischemia (n = 4-5 per group). 3. 10 µM ketanserin given only during reperfusion (n = 4). 4. 0.1-10 µM cinanserin treatment beginning 10 minutes before global ischemia (n = 4-10). 5. 1-10 µM LY 53857 treatment beginning 10 minutes before the onset of ischemia (n = 4 per group). After 10 minutes of vehicle or drug pretreatment, the hearts were subjected to 25 minutes of total global ischemia which was initiated by shutting off the perfusate flow. Reperfusion was begun (without drug except in the case of group 3 above) and allowed to continue for 30 minutes. At this time, final measurements of EDP, LVDP and coronary flow were obtained. Cumulative LDH relase was measured in the reperfusate and was used as the index of cellular and membrane viability. In all hearts, the time to contracture during ischemia was measured and used as an index of cardioprotection during ischemia. Time to contracture is defined as the time (minutes) necessary for the first 5 mm Hg increase in EDP to occur during global ischemia. The data were expressed as the percent change in time to contracture from vehicle.
# [1] = 0.3 µM, 30 Min Post-Reperfusion
# [2] = 0.3 µM, Pre-Ischemia, Post-Drug
# [3] = 3 µM (Reper), given only during reperfusion, 30 Min Post-Reperfusion
# [4] = 3 µM (Reper), given only during reperfusion, Pre-Ischemia, Post-Drug
# [5] = 3 µM (Reper), given only during reperfusion, Pre-Ischemia, Pre-Drug
compound,measurement,setting,value
"O=C(c1ccc(F)cc1)C1CCN(CCn2c(=O)[nH]c3ccccc3c2=O)CC1 [Ketanserin, ketanserin]",Coronary Flow,[1],13±2^a mL/min/g
same,HR,[1],266±18^a beats/min
same,LVDP,[1],20±5^a mmHg
same,Coronary Flow,[2],16 ± 2 mL/min/g
same,HR,[2],275±6 beats/min
same,LVDP,[2],141±10 mmHg
same,Coronary Flow,"0.3 µM, Pre-Ischemia, Pre-Drug",20 ± 2 mL/min/g
same,HR,"0.3 µM, Pre-Ischemia, Pre-Drug",291±2 beats/min
same,LVDP,"0.3 µM, Pre-Ischemia, Pre-Drug",146±5 mmHg
same,Coronary Flow,"1 µM, 30 Min Post-Reperfusion",10±1^a mL/min/g
same,HR,"1 µM, 30 Min Post-Reperfusion",243±35^a beats/min
same,LVDP,"1 µM, 30 Min Post-Reperfusion",29±5^a mmHg
same,Coronary Flow,"1 µM, Pre-Ischemia, Post-Drug",15 ± 1 mL/min/g
same,HR,"1 µM, Pre-Ischemia, Post-Drug",272±11 beats/min
same,LVDP,"1 µM, Pre-Ischemia, Post-Drug",128±4 mmHg
same,Coronary Flow,"1 µM, Pre-Ischemia, Pre-Drug",19 ± 1 mL/min/g
same,HR,"1 µM, Pre-Ischemia, Pre-Drug",311±16 beats/min
same,LVDP,"1 µM, Pre-Ischemia, Pre-Drug",130±6 mmHg
same,Coronary Flow,[3],14±1^a mL/min/g
same,HR,[3],"196±14^a,b beats/min"
same,LVDP,[3],33±6^a mmHg
same,Coronary Flow,[4],17 ± 2 mL/min/g
same,HR,[4],285±11 beats/min
same,LVDP,[4],130±5 mmHg
same,Coronary Flow,[5],19 ± 1 mL/min/g
same,HR,[5],292±15 beats/min
same,LVDP,[5],134±4 mmHg
same,Coronary Flow,"3 µM, 30 Min Post-Reperfusion",13±1^a mL/min/g
same,HR,"3 µM, 30 Min Post-Reperfusion",246±22^a beats/min
same,LVDP,"3 µM, 30 Min Post-Reperfusion","53±7^a,b mmHg"
same,Coronary Flow,"3 µM, Pre-Ischemia, Post-Drug",15 ± 1 mL/min/g
same,HR,"3 µM, Pre-Ischemia, Post-Drug",244±16^a beats/min
same,LVDP,"3 µM, Pre-Ischemia, Post-Drug",127±9 mmHg
same,Coronary Flow,"3 µM, Pre-Ischemia, Pre-Drug",19 ± 1 mL/min/g
same,HR,"3 µM, Pre-Ischemia, Pre-Drug",310±13 beats/min
same,LVDP,"3 µM, Pre-Ischemia, Pre-Drug",128±8 mmHg
same,Coronary Flow,"10 µM, 30 Min Post-Reperfusion",13±2^a mL/min/g
same,HR,"10 µM, 30 Min Post-Reperfusion",220±22^a beats/min
same,LVDP,"10 µM, 30 Min Post-Reperfusion","66±4^a,b mmHg"
same,Coronary Flow,"10 µM, Pre-Ischemia, Post-Drug",14 ± 2 mL/min/g
same,HR,"10 µM, Pre-Ischemia, Post-Drug","196±19^a,b beats/min"
same,LVDP,"10 µM, Pre-Ischemia, Post-Drug",128±5 mmHg
same,Coronary Flow,"10 µM, Pre-Ischemia, Pre-Drug",19 ± 1 mL/min/g
same,HR,"10 µM, Pre-Ischemia, Pre-Drug",290±6 beats/min
same,LVDP,"10 µM, Pre-Ischemia, Pre-Drug",135±5 mmHg
same,EC25,"Rattus norvegicus, drug given 10 minutes before global ischemia, read-out: EC25 (concentration which increased the time to contracture 25% above vehicle group values)",5.5 µM
same,cumulative LDH release during reperfusion,given only during reperfusion (Reper),did not cause a reduction in LDH release
same,protective effect for any variable measured,given only during reperfusion at 3 µM,no protective effect
same,reperfusion LDH release,"only at the 10 µM concentration, Figure 2B",significantly reduced LDH relase

# — patent EP0596449A2, “Serotonin receptor antagonists for treating myocardial ischemia” (E.R. SQUIBB & SONS, INC., priority 1992, dated 1994)
